From PubChem BioAssay AID296 (DTP/NCI, 2004)
“And” between values parts separate entries of the source, which are not always exact repeats. Equal values may be shown once. Inconclusive results are not listed.

Test system: MX-1 breast xenograft, nude mice, tumor weight T/C
Test: NCI In Vivo Anticancer Drug Screen. Data for tumor model Human Mammary Carcinoma MX-1 Xenograft (intrarenal inoculation) in NU/NU Swiss (nude) mice
Details: endpoint: mean tumor weight change, higher = larger tumour
Procedure, shortened: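 Compound dosed to mice with transplantable tumor; vehicle group as control. Endpoint survival or tumour size, reported as T/C.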

[1] = dose: 150.0 mg/kg/injection, schedule: Q04DX003 (sc), vehicle: Klucel (hydroxypropylcellulose) (HPC)
[2] = dose: 300.0 mg/kg/injection, schedule: Q04DX003 (sc), vehicle: Klucel (hydroxypropylcellulose) (HPC)
[3] = dose: 300.0 mg/kg/injection, schedule: Q04DX003 (sc), vehicle: saline
[4] = dose: 600.0 mg/kg/injection, schedule: Q04DX003 (sc), vehicle: saline
[5] = dose: 1200.0 mg/kg/injection, schedule: Q04DX003 (sc), vehicle: saline
[6] = dose: 2400.0 mg/kg/injection, schedule: Q04DX003 (sc), vehicle: saline
[7] = dose: 1.0 mg/kg/injection, schedule: Q04DX003 (sc), vehicle: saline with Tween-80
[8] = dose: 2.0 mg/kg/injection, schedule: Q04DX003 (sc), vehicle: saline with Tween-80
[9] = dose: 4.0 mg/kg/injection, schedule: Q04DX003 (sc), vehicle: saline with Tween-80
[10] = dose: 8.0 mg/kg/injection, schedule: Q04DX003 (sc), vehicle: saline with Tween-80
[11] = dose: 200.0 mg/kg/injection, schedule: Q01DX010 (sc), vehicle: saline with Tween-80
[12] = dose: 400.0 mg/kg/injection, schedule: Q01DX010 (sc), vehicle: saline with Tween-80
[13] = dose: 800.0 mg/kg/injection, schedule: Q01DX010 (sc), vehicle: saline with Tween-80
[14] = dose: 200.0 mg/kg/injection, schedule: Q04DX003 (sc), vehicle: Klucel (hydroxypropylcellulose) (HPC)
[15] = dose: 400.0 mg/kg/injection, schedule: Q04DX003 (sc), vehicle: Klucel (hydroxypropylcellulose) (HPC)
[16] = dose: 800.0 mg/kg/injection, schedule: Q04DX003 (sc), vehicle: Klucel (hydroxypropylcellulose) (HPC)
[17] = dose: 200.0 mg/kg/injection, schedule: Q04DX003 (sc), vehicle: saline with Tween-80
[18] = dose: 400.0 mg/kg/injection, schedule: Q04DX003 (sc), vehicle: saline with Tween-80
[19] = dose: 150.0 mg/kg/injection, schedule: Q04DX003 (ip), vehicle: saline with Tween-80
[20] = dose: 300.0 mg/kg/injection, schedule: Q04DX003 (ip), vehicle: saline with Tween-80
[21] = dose: 150.0 mg/kg/injection, schedule: Q04DX003 (sc), vehicle: saline with Tween-80
[22] = dose: 300.0 mg/kg/injection, schedule: Q04DX003 (sc), vehicle: saline with Tween-80

CNC(=O)/C=C/C1=CN2C(=O)c3ccc(C)c(O)c3NC(OC)C2C1 (stereo not given)
T/C (dose: 0.2 mg/kg/injection, schedule: Q04DX003 (sc), vehicle: saline): 82 % of control | T/C (dose: 0.4 mg/kg/injection, schedule: Q04DX003 (ip), vehicle: saline): 18 % of control and 21 % of control | T/C (dose: 1.6 mg/kg/injection, schedule: Q04DX003 (sc), vehicle: saline): 3 % of control

COC(=O)C12OCC34C(CC5C(C)=CC(=O)C(O)C5(C)C3C(O)C1O)OC(=O)C(OC(=O)CC(C)C)C24 (stereo not given)
T/C (dose: 1.5 mg/kg/injection, schedule: Q04DX003 (sc), vehicle: saline + alcohol): 107 % of control | T/C (dose: 3.0 mg/kg/injection, schedule: Q04DX003 (sc), vehicle: saline + alcohol): 58 % of control

C=C(c1ccc(OC)c(OC)c1)c1nccc2cc(OC)c(OC)cc12
T/C [1]: 91 % of control | T/C [2]: 71 % of control | T/C (dose: 600.0 mg/kg/injection, schedule: Q04DX003 (sc), vehicle: Klucel (hydroxypropylcellulose) (HPC)): 89 % of control | T/C (dose: 1200.0 mg/kg/injection, schedule: Q04DX003 (sc), vehicle: Klucel (hydroxypropylcellulose) (HPC)): 54 % of control

COC1=C2C[C@@H](C)C[C@@H](OC)[C@@H](O)[C@H](C)/C=C(\C)[C@@H](OC(N)=O)[C@H](OC)/C=C\C=C(/C)C(=O)NC(=CC1=O)C2=O
T/C (dose: 4.0 mg/kg/injection, schedule: Q04DX003 (sc), vehicle: saline): 102 % of control | T/C (dose: 8.0 mg/kg/injection, schedule: Q04DX003 (sc), vehicle: saline): 89 % of control | T/C (dose: 16.0 mg/kg/injection, schedule: Q04DX003 (sc), vehicle: saline): 89 % of control | T/C (dose: 32.0 mg/kg/injection, schedule: Q04DX003 (sc), vehicle: saline): 88 % of control and 94 % of control | T/C (dose: 64.0 mg/kg/injection, schedule: Q04DX003 (sc), vehicle: saline): 85 % of control | T/C (dose: 128.0 mg/kg/injection, schedule: Q04DX003 (sc), vehicle: saline): 66 % of control

C[N+](C)(C)c1cc2c(nn1)Nc1ccccc1S2
T/C (dose: 50.0 mg/kg/injection, schedule: Q01DX010 (sc), vehicle: Klucel (hydroxypropylcellulose) (HPC)): 74 % of control | T/C (dose: 100.0 mg/kg/injection, schedule: Q01DX010 (sc), vehicle: Klucel (hydroxypropylcellulose) (HPC)): 240 % of control and 272 % of control

Cn1cnc([N+](=O)[O-])c1SCC(=O)O
T/C [3]: 80 % of control | T/C [4]: 43 % of control | T/C [5]: 88 % of control | T/C [6]: 71 % of control

COC(C(=O)C(O)C(C)O)C1Cc2cc3cc(OC4CC(OC(C)=O)C(OC5CC(O)C(OC)C(C)O5)C(C)O4)cc(O)c3c(O)c2C(=O)C1OC1CC(OC2CC(OC3CC(C)(O)C(OC(=O)C(C)C)C(C)O3)C(O)C(C)O2)C(O)C(C)O1 (stereo not given)
T/C [7]: 47 % of control | T/C (dose: 1.5 mg/kg/injection, schedule: Q04DX003 (sc), vehicle: saline with Tween-80): 11 % of control and 26 % of control and 28 % of control | T/C [8]: 49 % of control | T/C [9]: 13 % of control | T/C [10]: -79 % of control

Cc1ccccc1SSc1ccccc1C
T/C [11]: 88 % of control | T/C [12]: 96 % of control | T/C [13]: 91 % of control

CS(=O)(=O)OCCCNCCCOS(C)(=O)=O
T/C (dose: 18.75 mg/kg/injection, schedule: Q04DX003 (sc), vehicle: saline): 61 % of control | T/C (dose: 75.0 mg/kg/injection, schedule: Q04DX003 (sc), vehicle: saline): 6 % of control and 7 % of control | T/C (dose: 150.0 mg/kg/injection, schedule: Q04DX003 (sc), vehicle: saline): 1 % of control

COc1ccc2c(c1)CCn1c(C)c(COC(=O)NC(C)C)c(COC(=O)NC(C)C)c1-2
T/C (dose: 150.0 mg/kg/injection, schedule: Q04DX003 (sc), vehicle: distilled water + Tween-80): 6 % of control | T/C (dose: 300.0 mg/kg/injection, schedule: Q04DX003 (sc), vehicle: distilled water + Tween-80): 3 % of control | T/C (dose: 600.0 mg/kg/injection, schedule: Q04DX003 (sc), vehicle: distilled water + Tween-80): -100 % of control | T/C (dose: 1200.0 mg/kg/injection, schedule: Q04DX003 (sc), vehicle: distilled water + Tween-80): -100 % of control

O=C(O)C1(NO)CCCCC1
T/C [14]: 110 % of control | T/C [15]: 100 % of control | T/C [16]: 123 % of control | T/C (dose: 1600.0 mg/kg/injection, schedule: Q04DX003 (sc), vehicle: Klucel (hydroxypropylcellulose) (HPC)): 64 % of control

O=C(CO)c1ccc([N+](=O)[O-])cc1
T/C (dose: 100.0 mg/kg/injection, schedule: Q01DX010 (sc), vehicle: saline with Tween-80): 95 % of control | T/C [11]: 114 % of control | T/C [12]: 67 % of control | T/C [13]: 63 % of control

C[Si](C)(C)O/C=C1\CCCCC1=O
T/C [17]: 94 % of control | T/C [18]: 89 % of control

CCCCCCCCCCCCCCCCS(=O)CC(O)COC(=O)c1ccc(C(=O)OCC(O)CS(=O)CCCCCCCCCCCCCCCC)cc1 (stereo not given)
T/C (dose: 50.0 mg/kg/injection, schedule: Q01DX010 (sc), vehicle: saline + Tween-80 + alcohol): 58 % of control | T/C (dose: 100.0 mg/kg/injection, schedule: Q01DX010 (sc), vehicle: saline + Tween-80 + alcohol): 115 % of control | T/C (dose: 200.0 mg/kg/injection, schedule: Q01DX010 (sc), vehicle: saline + Tween-80 + alcohol): 100 % of control | T/C (dose: 400.0 mg/kg/injection, schedule: Q01DX010 (sc), vehicle: saline + Tween-80 + alcohol): 82 % of control

Nc1nc2ccc(NCc3ccc(C(=O)NC(CCC(=O)O)C(=O)O)cc3)cc2c(=O)[nH]1 (stereo not given)
T/C (dose: 100.0 mg/kg/injection, schedule: Q04DX003 (sc), vehicle: saline with Tween-80): 93 % of control | T/C [17]: 93 % of control | T/C [18]: 90 % of control | T/C (dose: 800.0 mg/kg/injection, schedule: Q04DX003 (sc), vehicle: saline with Tween-80): 23 % of control

c1ccc2c(c1)nnn1c3cnccc3nc21
T/C (dose: 12.5 mg/kg/injection, schedule: Q01DX010 (sc), vehicle: saline with Tween-80): 36 % of control | T/C (dose: 25.0 mg/kg/injection, schedule: Q01DX010 (sc), vehicle: saline with Tween-80): 86 % of control | T/C (dose: 50.0 mg/kg/injection, schedule: Q01DX010 (sc), vehicle: saline with Tween-80): 63 % of control

c1ccc(OCC2CO2)c(OCC2CO2)c1 (stereo not given)
T/C [19]: 95 % of control | T/C [20]: 99 % of control

O=[N+]([O-])c1ccc(-n2[nH]nnc2=S)cc1
T/C [14]: 158 % of control | T/C [15]: 151 % of control | T/C [16]: 169 % of control

O=CC(CO)CC(C=O)n1cnc2c(=O)[nH]cnc21 (stereo not given)
T/C (dose: 150.0 mg/kg/injection, schedule: Q04DX003 (ip), vehicle: saline): 62 % of control | T/C (dose: 300.0 mg/kg/injection, schedule: Q04DX003 (ip), vehicle: saline): 57 % of control | T/C (dose: 600.0 mg/kg/injection, schedule: Q04DX003 (ip), vehicle: saline): 30 % of control

CC1/C=C/C=C/CC/C=C/C=C/C=C/C=C/C(OC2OC(C)C(O)C(N)C2O)CC2OC(CC(O)C(O)CCC(O)CC(O)CC(O)CC(=O)OC(C)C(C)C1O)CC(O)C2C(=O)O (stereo not given)
T/C [19]: 59 % of control | T/C [20]: 55 % of control

ClCc1ccc2ccccc2n1
T/C [21]: 98 % of control | T/C [22]: 98 % of control | T/C (dose: 1200.0 mg/kg/injection, schedule: Q04DX003 (sc), vehicle: saline with Tween-80): 116 % of control

CC[C@@]1(O)C(=O)OCc2c1cc1n(c2=O)Cc2cc3ccccc3nc2-1
T/C [7]: 100 % of control | T/C [8]: 58 % of control | T/C [9]: 23 % of control | T/C [10]: 11 % of control

C[CH2][Ge]([CH2]C)[CH2]C.C[CH2][Ge]([CH2]C)[CH2]C.C[CH2][Ge]([CH2]C)[O][Ge]([CH2]C)[CH2]C
T/C [21]: 109 % of control | T/C [22]: 79 % of control

CCCCCC[C@@H](O)C/C=C\CCCCCCCC(=O)OCCO
T/C [3]: 87 % of control | T/C [4]: 104 % of control | T/C [5]: 96 % of control | T/C [6]: 103 % of control

O=c1s[se]c2ccccc12
T/C [1]: 55 % of control | T/C [2]: 55 % of control

COC(=O)C(N)Cc1ccc(O)c(O)c1 (stereo not given)
T/C [3]: 106 % of control | T/C [4]: 101 % of control | T/C [5]: 105 % of control
